Data taken from patent US7935525B2, “Inhibition of ATF2 activity to treat cancer” (Mount Sinai School of Medicine, priority 2001, dated 2011).
No end group written: not given here.

Experiments:
[1] = system: 293T human kidney embryonic cells; test: Apoptosis by FACS (hypodiploid fraction); assay type: cell-based; details: peptide-expressing 293T; normal growth conditions
Procedure: [Worded in the source for another cell line; this cell line is reported under the same test.] (§1) Treatment and apoptosis studies of stably transfected melanoma cells. Cells were exposed to UVC at 75 J/m^2 as previously described (Ronai, Z., et al., Oncogene 1998; 16:523-531). SB203580 (1-10 μM) (Calbiochem®, San Diego, Calif.), NCS (50-100 ng/ml) and mitomycin C (MMC) (0.2-1 μM) were used to treat melanoma cells. Flow cytometric analysis was performed on a FACSCalibur™ flow cytometer (Becton Dickinson) using CellQuest™ software as described previously (Nicoletti et al., J. Immunol. Methods 1991; 139:271-279). Cells were pelleted and resuspended in 0.5 ml of hypotonic buffer with 0.1% Triton X-100 containing PI (40 μg/ml) and DNase-free RNase A (1 mg/ml). Cells were incubated at 37° C. for 30 min and analyzed on a FACSCalibur™ flow cytometer (Becton Dickinson). The percentage of cells to the left of the diploid G0/1 peak, characteristic of hypodiploid cells that have lost DNA, was defined as the percentage of apoptotic cells. Analysis was performed with light scatter gating. Surface expression of Fas was determined using anti-Fas-PE antibody (PharMingen® CA) and flow cytometric analysis. Cell surface expression is measured as mean fluorescence intensity (MFI).

ATF2 [2] = test: ATF2 phosphorylation in peptide-expressing melanoma cells; assay type: cell-based, human; details: UV-treated; vs control vector cells
Fas promoter = Fas promoter activity (-460 Fas promoter region); assay type: cell-based, human; details: peptide-expressing LU1205
LU1205 cells = test: Apoptosis by FACS (hypodiploid fraction); assay type: cell-based, human; parameters: Adriamycin induced programmed cell death, increase compared with control: dose or concentration left out as unconfirmed
Procedure: as §1

[3] = system: MCF7 breast cancer-derived cell line; test: Apoptosis by FACS (hypodiploid fraction); assay type: cell-based, human; details: peptide-expressing MCF7; UV; 36 h
Procedure: [Worded in the source for another cell line; this cell line is reported under the same test.] as §1

FEMX cells = test: Apoptosis by FACS (hypodiploid fraction); assay type: cell-based, human; details: peptide-expressing FEMX; UV-C 75 J/m2; 36 h; neo control 13%
Procedure: as §1

[4] = system: Adriamycin-resistant MCF7 cell line (MCF7-Adr); test: Apoptosis by FACS (hypodiploid fraction); assay type: cell-based, human; details: peptide-expressing MCF7-Adr; neo controls 3-fold; 36 h
Procedure: [Worded in the source for another cell line; this cell line is reported under the same test.] as §1

[5] = system: WM1552 early-phase melanoma cell line; test: Apoptosis by FACS (hypodiploid fraction); assay type: cell-based, human; details: peptide-expressing WM1552; UV-C 75 J/m2; 36 h
Procedure: as §1

Fas = test: Cell surface expression of Fas by FACS; assay type: cell-based, human; details: peptide-expressing LU1205; control 122
Procedure: as §1

[6] = system: ATF2 transcriptional output; test: Jun-2-Luc activities in peptide IV-expressing cells; assay type: cell-based
FEMX melanoma cell line = test: Colony forming efficiency (CFE) resistance assay; assay type: cell-based, human; details: peptide-expressing FEMX vs neo control; UV-treatment; 14 days
Procedure: (§2) Radiation resistance. Cells (500 or 1500 per well) were plated in triplicates on 6 well plates, 24 h before treatment (Ronai et al., Oncogene 1998; 16:523-531). In all cases, plating efficiency was pre-determined so that number of cell plated was normalized respectively. Colonies (greater than 50 cells per clone) were stained with crystal violet solution (3% in 10% methanol and PBS), 14 days After treatment. % of CFE in each treatment group was calculated based on total CFE formed in the respective controls (100%).

[7] = system: LU1205 melanoma cell line; test: Colony forming efficiency (CFE) resistance assay; assay type: cell-based, human
Procedure: as §2

FEMX tumor cells = test: Growth of transplanted FEMX tumors in mice; assay type: in vivo; details: single agent: UCN-01 by gavage, or peptide expressed in tumor cells
Procedure: (§3) Tumor growth and metastasis evaluation in vivo. Cell lines established in culture to constitutively or inducibly express the peptide were injected into mice subcutaneously (S.C.). LU1205, FEMX and SW-1 cells that expressed control or peptide II were trypsinized, resuspended in PBS and injected SC (1×10^6) into 6-7 week old mice in the lower flank. When the tumor reached the size of about 50 mm^3, 5 μM of SB203580 was injected into four areas of the LU1205 tumors every 4 days during a 2-week period. For FEMX tumors UCN-01 (2.5 mg/kg) was fed by gavage twice a day, three times per week for a total of 2 weeks. Tumor growth was monitored every two days. SW-1 cells expressing peptide II under tet-inducible vector were injected SC (1×10^6). When tumors reached a size of about 50 mm^3, the mice received doxycycline in their drinking water ([…]) for a total of 2-4 weeks. At the end of the experiment, the tumors were excised and weighed. The lungs and other organs were subjected to histopathological examination to detect metastatic lesions.

[8] = system: human melanocytes (FOM71); test: Apoptosis by FACS (hypodiploid fraction); assay type: cell-based; details: melanocytes; SB203580 or NCS (100 ng/ml); 36 h
Procedure: as §1

LU1205 tumor cells = test: Growth of transplanted LU1205 tumors in mice; assay type: in vivo; details: single agent: inhibitor injected into tumor, or peptide expressed in tumor cells
Procedure: as §3

JNK = test: GST binding assay; details: GST pull-down; greater binding in extracts of UV-treated cells
Procedure: (§4) Electrophoretic mobility shift assays were performed as described. (Ivanov and Ronada, J Biol Chem 1999; 274(20):14079-89). GST binding assays were performed with GST-peptide II as described (Adler et al., Proc Natl Acad Sci USA 1995; 92 10585-9). SW1 cells expressing control vector or peptide II were subjected to FACS analysis following their incubation with antibodies to the cell surface receptor of FAS as described above.

ATF2 [9] = test: GST binding assay; details: GST pull-down
Procedure: as §4

peptide IV: ATF2 peptide of amino acid residues 150-200, expressed from pcDNA3 with HA-penetratin tag (EVPLAQTAQPTSAIVRPASLQVPNVLLTSSDSSVIIQQAVPSPTSSTVITQ; not fully specified; also: HA-penetratin tag, position not given here; UniProt P15336 150-200, looked up, fragment)
increase in the degree of basal apoptosis [1]: 15 fold
ATF2 phosphorylation after UV-treatment (ATF2 [2]): higher degree of increase in ATF2 phosphorylation
Fas promoter mediated transcription (Fas promoter): decrease in Fas promoter mediated transcription
increase in degree of apoptosis over control neo cells given Adriamycin and verapamil (LU1205 cells; peptide-expressing LU1205, Adriamycin + verapamil): 70%
apoptotic fraction of UV-treated cells (LU1205 cells; peptide-expressing LU1205, UV-C 75 J/m2, 36 h, neo control 15%): 10%
increase in the degree of cell death (LU1205 cells; peptide-expressing LU1205, higher doses (10 μM) of SB203580, 36 h): 2 fold
increase in cell death (LU1205 cells; peptide-expressing LU1205, low doses of SB203580, 36 h): did not alter the degree of cell death
decrease in the degree of apoptosis after UV-treatment compared with MCF7 neo control cells [3]: 5 fold
apoptotic fraction of UV-treated cells (FEMX cells): 8%
increase in apoptosis following UV-treatment [4]: greater than 4 fold
sensitization to UV-induced apoptosis [5]: did not cause higher level of apoptosis
cell surface expression of Fas, mean fluorescence intensity (Fas): did not cause major changes
transcriptional output measured via Jun-2-Luc activities [6]: elevated transcriptional output
increase in the % of CFE (FEMX melanoma cell line): ≤ 2.5 fold
increase in the resistance to NCS (CFE) ([7]; peptide-expressing LU1205, low dose of NCS): ~2 fold
increase in the % of CFE ([7]; peptide-expressing LU1205 vs neo control, UV-treatment, 14 days): ≤ 2.5 fold

COc1cccc2c1C(=O)c1c(O)c3c(c(O)c1C2=O)C[C@@](O)(C(=O)CO)C[C@@H]3O[C@H]1C[C@H](N)[C@H](O)[C@H](C)O1 [Adriamycin®, reference compound]
Adriamycin induced programmed cell death, increase compared with control (LU1205 cells; LU1205, ADR alone): 2 fold

CN[C@@H]1C[C@H]2O[C@@](C)([C@@H]1OC)n1c3ccccc3c3c4c(c5c6ccccc6n2c5c31)C(=O)N[C@H]4O [UCN-01, 7-hydroxystaurosporine, reference compound]
tumor cell growth (FEMX tumor cells): little effect, if any

C[S+]([O-])c1ccc(-c2nc(-c3ccncc3)c(-c3ccc(F)cc3)[nH]2)cc1 (centres unmarked) [SB203580, reference compound]
changes in degree of apoptosis [8]: neither NCS nor SB203580 elicited any significant changes
tumor cell growth (LU1205 tumor cells): almost no effect

neocarzinostatin [NCS]
changes in degree of apoptosis [8]: neither NCS nor SB203580 elicited any significant changes

B1: amino acid residues 1-115: larger region of the amino-terminal ATF2 domain (amino acid residues 1-115) (protein, UniProt P15336 1-115, looked up, fragment)
chain: MKFKLHVNSARQYKDLWNMSDDKPFLCTAPGCGQRFTNEDHLAVHKHKHEMTLKFGPARNDSVIVADQTPTPTRFLKNCEEVGLFNELASPFENEFKKASEDDIKKMPLDLSPLA
association with JNK (JNK): equivalent association
association with ATF2 (ATF2 [9]): weaker association
